Laboratory results as given in PubChem BioAssay AID1963964 (Molecular Pharmacology Branch, DTP, NCI, 2024).
Where “and” joins values, the source holds several entries; their conditions need not be identical. Identical values can stand only once.

Test system: 997726-040-R-J2-PDC tumor spheroids, viability
Test: Anticancer human tumor 997726-040-R-J2-PDC patient-derived squamous cell lung carcinoma cell line growth inhibition [PI3K]
Details: spheroids with HUVEC and MSC; for viability, T/C: stronger effect = lower value
Outline: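 Complex 3D spheroids (cancer cells + endothelial HUVEC + mesenchymal stem cells); drug pairs of targeted agent x inavolisib/alpelisib/duvelisib/copanlisib; half-log series from ~Cmax, max 10 microM if Cmax unknown; endpoint viability.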
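Further: spheroids exposed to compounds for seven days before readout.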

With `CCCS(=O)(=O)Nc1ccc(F)c(C(=O)c2c[nH]c3ncc(-c4ccc(Cl)cc4)cc23)c1F` the viability, T/C (compound 0.0316 µM) was 103% [middle of 4 runs], the viability, T/C (compound 0.1 µM) was 106% [middle of 4 runs] and the viability, T/C (compound 0.316 µM) was 104% (2×) and 114% and 126%. The viability, T/C (compound 1 µM) was 131% [middle of 4 runs], the viability, T/C (compound 10 µM) was 27.6% [middle of 4 runs] and the IC50 (curve of compound) was 7120 nM and 7360 nM and 7320 nM.

Molecule `Cn1ncc(Cl)c1-c1cc(C(=O)NC(CN)Cc2cccc(F)c2)sc1Cl` (stereo not drawn) + Cc1nc(NC(=O)N2CCCC2C(N)=O)sc1-c1ccnc(C(C)(C)C(F)(F)F)c1 has an IC50 (curve of first compound, second compound 0.0316 µM) of 96.7 nM, an IC50 (curve of first compound, second compound 0.1 µM) of 77.4 nM and an IC50 (curve of first compound, second compound 0.316 µM) of 32.1 nM. The IC50 (curve of first compound, second compound 1 µM) was < 31.6 nM, the IC50 (curve of first compound, second compound 3.16 µM) was < 31.6 nM and the IC50 (curve of first compound, second compound 10 µM) was < 31.6 nM. The viability, T/C (second compound 0.0316 µM, first compound 0.0316 µM) was 68%, the viability, T/C (second compound 0.0316 µM, first compound 0.1 µM) was 49.7% and the viability, T/C (second compound 0.0316 µM, first compound 0.316 µM) was 23.7%. For the same molecule, the viability, T/C (second compound 0.0316 µM, first compound 1 µM) was 11.6%, the viability, T/C (second compound 0.0316 µM, first compound 3.16 µM) was 9.66% and the viability, T/C (second compound 0.0316 µM, first compound 10 µM) was 5.52%. For the same molecule, the viability, T/C (second compound 0.1 µM, first compound 0.0316 µM) was 65.4%, the viability, T/C (second compound 0.1 µM, first compound 0.1 µM) was 45.7% and the viability, T/C (second compound 0.1 µM, first compound 0.316 µM) was 25%. For the same molecule, the viability, T/C (second compound 0.1 µM, first compound 1 µM) was 13%, the viability, T/C (second compound 0.1 µM, first compound 3.16 µM) was 9.73% and the viability, T/C (second compound 0.1 µM, first compound 10 µM) was 6.2%. The viability, T/C (second compound 0.316 µM, first compound 0.0316 µM) was 50%, the viability, T/C (second compound 0.316 µM, first compound 0.1 µM) was 37.7% and the viability, T/C (second compound 0.316 µM, first compound 0.316 µM) was 22.5%. The viability, T/C (second compound 0.316 µM, first compound 1 µM) was 11.7%, the viability, T/C (second compound 0.316 µM, first compound 3.16 µM) was 9.53% and the viability, T/C (second compound 0.316 µM, first compound 10 µM) was 3.13%. For the same molecule, the viability, T/C (second compound 1 µM, first compound 0.0316 µM) was 39.9%, the viability, T/C (second compound 1 µM, first compound 0.1 µM) was 35.2% and the viability, T/C (second compound 1 µM, first compound 0.316 µM) was 21.6%. The viability, T/C (second compound 1 µM, first compound 1 µM) was 11.3%, the viability, T/C (second compound 1 µM, first compound 3.16 µM) was 8.3% and the viability, T/C (second compound 1 µM, first compound 10 µM) was 2.53%. For the same molecule, the viability, T/C (second compound 3.16 µM, first compound 0.0316 µM) was 25.3%, the viability, T/C (second compound 3.16 µM, first compound 0.1 µM) was 22.5% and the viability, T/C (second compound 3.16 µM, first compound 0.316 µM) was 13.9%. The viability, T/C (second compound 3.16 µM, first compound 1 µM) was 10%, the viability, T/C (second compound 3.16 µM, first compound 3.16 µM) was 6.18% and the viability, T/C (second compound 3.16 µM, first compound 10 µM) was 1.9%. For the same molecule, the viability, T/C (second compound 10 µM, first compound 0.0316 µM) was 15%, the viability, T/C (second compound 10 µM, first compound 0.1 µM) was 11.3% and the viability, T/C (second compound 10 µM, first compound 0.316 µM) was 7.08%. The viability, T/C (second compound 10 µM, first compound 1 µM) was 4.6%, the viability, T/C (second compound 10 µM, first compound 3.16 µM) was 3.71% and the viability, T/C (second compound 10 µM, first compound 10 µM) was 1.05%.
